Consider two compounds from patent US5756491A, “Antiviral cobalt-organic compounds” (priority 1991, dated 1998).

Series [1] has as its system RE strain HSV-1. Put plainly: Topical efficacy in RE strain HSV-1-induced stromal keratitis in the rabbit. The format is in vivo, NZW rabbit. On the procedure: The following examples describe topical ocular evaluation of the inventive compounds during RE strain HSV-1-induced stromal keratitis in the rabbit. These evaluations included analysis of the topical efficacy of both the inventive compounds alone, or, in certain instances, in combination with trifluorothymidine (TFT). The evaluation was carried out by the combined analysis of both clinical and virological (HSV-1 recovery) parameters. The specified number of NZW rabbits (1.5-2.0 kg) were used. Animals were received at least two days prior to inoculation to allow them to accommodate to the conditions in the vivarium facility. This conditioning of the animals prior to inoculation minimizes animal variability. After the accommodation, the animals received a slit-lamp examination to exclude any animals with pre-existing anterior segment ocular defects. Animals were bi-laterally inoculated by intrastromal injection of 10^5 PFU RE strain HSV-1. The animals were then replaced individually into cages. On day number three post-inoculation (PI), the animals were evaluated by slit-lamp microscopy. Corneal stromal, iris and conjunctival disease were graded on an increasing scale of severity from 0+ to 4+. After evaluation, the animals were divided into a specified number of groups each containing an equal number of animals based on a matched corneal stromal involvement. Topical therapy was initiated immediately after animal groupings. All animals received daily slit-lamp evaluations from day 3 through 7 PI. The ocular HSV-1 induced disease severity was recorded daily. […] Differences in disease resolution and development of stromal alterations are statistically analyzed. Virus recovery during and after topical therapy was compared. The topical efficacy of Compounds 23 and 96 on stromal HSV-1 infection in the rabbit model of stromal keratitis was evaluated. All animals received daily slit lamp evaluations from day 3 through day 7 and on days 9 and 10 PI. The ocular HSV-1-induced disease severity was recorded daily. The topical efficacy of Compounds 23, 96 and 82 on stromal HSV-1 infection in the rabbit model of stromal keratitis was evaluated. All animals received daily slit lamp evaluations for day 3 through day 7 PI. The ocular HSV-1-induced disease severity was recorded daily. The topical efficacy of Compounds 23 and 96 in combination with TFT on stromal HSV-1 infection in the rabbit model of stromal keratitis was evaluated. Groups 1, 2 and 3 each have 5 animals for a total of 10 eyes per combination therapy. This allowed minimization of individual animal variability and performance of a statistical analysis on the results of the combination therapies. Groups 3, 4 and 5 have 2 animals each. These single-agent therapies were used to verify previously reported data on the efficacy of these compounds. The compounds are used at a lower frequency of delivery to match the dosing regimen of the combination-agent group. Consequently, the study also provides comparative information on Compounds 23 and 96 as a lower frequency of topical administration (4 times per day vs. 9 times per day in previous studies).

For series [2], the system named is RE strain HSV-1. Briefly: HSV-1 recovery from tear film, cornea and trigeminal ganglia of treated rabbits. The format is in vivo, NZW rabbit. The source says: The specified number of NZW rabbits (1.5-2.0 kg) were used. Animals were received at least two days prior to inoculation to allow them to accommodate to the conditions in the vivarium facility. This conditioning of the animals prior to inoculation minimizes animal variability. After the accommodation, the animals received a slit-lamp examination to exclude any animals with pre-existing anterior segment ocular defects. Animals were bi-laterally inoculated by intrastromal injection of 10^5 PFU RE strain HSV-1. The animals were then replaced individually into cages.
[…] This was carried out by obtaining tear film by swabbing the lower and upper conjunctival sacs and retaining the swab in the nasal fornix for 10 seconds. The swabs were eluted individually in HBSS. 50 μl aliquots of the virus-HBSS eluate were absorbed under confluent HFF cell monolayers for 5 minutes. The monolayers were hydrated with MEM, incubated at 37° C. and observed daily for 1 to 2 weeks to detect developing cytopathology consistent with HSV infection (HSV CPE).
On day 10 PI, the animals were sacrificed, the corneal epithelium was scraped from the eyes and epithelial and corneal stromal cultures were preformed on HFF cell monolayers. The separation of epithelial virus from deeper stromal virus infection allows for analysis of HSV in these distinct corneal layers. Corneal epithelial and stromal co-cultures were evaluated daily by inverted light microscopy.
At sacrifice, trigeminal ganglia were removed, washed in HBSS, minced and floated over duplicate HFF cell monolayers. The cell co-cultures were monitored by inverted light microscopy for 2 weeks. Negative cultures were blind passaged twice at 7 day intervals. Detection of HSV CPE in the whole-cell co-cultures was scored either positive or negative. HSV recovery from inventive compound-treated, TFT-treated and placebo-treated trigeminal ganglia was compared and differences in recovery rates analyzed.
On day 7 PI, the animals were sacrificed, the corneal epithelium was scraped from the eyes and epithelial and corneal stromal cultures were performed on HFF cell monolayers. The separation of epithelial virus from deeper stromal virus infection allows for analysis of HSV in these distinct corneal layers. Corneal epithelial and stromal co-cultures were evaluated daily by inverted light microscopy.

The subject of the next series is HSV-1 McKrae Strain. Put plainly: Direct virucidal efficacy against HSV-1 on HFF monolayers. The series is classed as cell-based. As to conditions: for virucidal efficacy (HSV-1 titer): Experiment 5 (Table 12), 24 h PI. As for the experimental part: HSV-1 McKrae Strain was diluted to a final concentration of 10^5 PFU/ml in minimal essential medium (MEM). Hereinafter, this dilution is referred to as the HSV-1 Suspension for convenience.
(§1) With sufficient stirring, all the compounds completely dissolved.
Each of the drug solutions were mixed with the HSV-1 Suspension in a 1:1 ratio. The drug and HSV-1 Suspension mixture was incubated at 37° C. for thirty minutes with agitation every ten minutes. After the incubation, fifty microliter aliquots were overlaid onto triplicate confluent human foreskin fibroblast (HFF) cell monolayers. The inoculum was absorbed for thirty minutes and then a medium containing the appropriate drug concentration in MEM was added to the monolayers to a final volume of 0.5 milliliters per culture-well. The monolayers were incubated at 37° C. The developing HSV-1 Cytopathology was monitored daily for two days by inverted light microscopy. Titers were calculated by multiple regression analysis. All data is presented as the average PFU/ml reduction at 24 and/or 48 hours after inoculation (PI).
1. HSV-1 inoculated, non-compound treated HFF monolayers were included as "positive controls"; and […]

The subject of series [3] is human foreskin fibroblast (HFF) cell monolayers. Put plainly: Toxicity effects controls: sham-inoculated compound-treated HFF monolayers. Further: key: +: toxic; -: no toxicity; ±: mild toxicity; T: toxicity effects interfered with CPE rating. As to conditions: Experiment 5 (Table 13). The format is cell-based.
Source text: as §1
In the tables, the symbols have the meaning indicated: […]

Structures are written as SMILES.

As for `O=c1[nH]c(=O)n([C@H]2C[C@H](O)[C@@H](CO)O2)cc1C(F)(F)F` [TFT, trifluorothymidine], the “efficacy ranking during stromal HSV-1 infection” value with RE strain HSV-1 [1] (Example 3, all eyes, FIG. 1, 1 mg/ml (TFT 0.1%), 9x/day, 5 days) is reported as “Compound 96>>Compound 23>TFT>Placebo”. In addition, in the series on RE strain HSV-1 [1] (Example 4, FIG. 2), the “efficacy ranking, average stromal disease scores” value was “Compound 96>Compound 82>Compound 23>TFT=Placebo”. For the same compound, in the series with RE strain HSV-1 [1] (Example 5, FIG. 5, initial stromal disease <0.5 on day 3 PI), the “effect on stromal disease severity/progression” value was “ineffective in reducing the stromal disease severity”. Moreover, the “effect on development and progression of stromal disease” value in the series with RE strain HSV-1 [1] (Example 5, FIG. 7, score <0.5 on day 3 PI, 4 times per day) was “ineffective in reducing the development and progression of stromal disease”. Moreover, in the series with RE strain HSV-1 [2] (Example 3 (Table 22)), the “HSV-1 recovery, corneal epithelium (C.E.)” value is on record as 60%. Moreover, the “HSV-1 recovery, corneal stroma (C.S.)” value with RE strain HSV-1 [2] (Example 3 (Table 22)) is 60%. Besides, the “HSV-1 recovery, trigeminal ganglia (T.G.)” value in the series on RE strain HSV-1 [2] (Example 3 (Table 22)) was found to be 60%. Also, the “HSV-1 recovery, tear film (positive samples of total)” value in the series on RE strain HSV-1 [2] (Example 3 (Table 22), day 3 PI) came to 100%; with RE strain HSV-1 [2] (Example 3 (Table 22), day 5 PI), 80%; with RE strain HSV-1 [2] (Example 3 (Table 22), day 7 PI) it was 30%; with RE strain HSV-1 [2] (Example 3 (Table 22), day 9 PI), 0%. In addition, the “HSV-1 recovery, corneal stroma” value in the series on RE strain HSV-1 [2] (Example 5 (Table 23)) was determined as 70%. The “HSV-1 recovery (positive cultures per total)” value in the series with RE strain HSV-1 [2] (Example 5 (Table 23), column 1) was determined as 0%; with RE strain HSV-1 [2] (Example 5 (Table 23), column 3), 100%; in the series on RE strain HSV-1 [2] (Example 5 (Table 23), column 5), 90%; in the series with RE strain HSV-1 [2] (Example 5 (Table 23), column 7) it was 70%.
In the case of `CC([O-])=CC(C)=NCCN=C(C)C=C(C)[O-].Cc1cnc[nH]1.Cc1cnc[nH]1.[Br-].[Co+3]` [Compound 97], the “virucidal efficacy (HSV-1 titer)” value is 10^5 PFU/ml in the series with HSV-1 McKrae Strain (Run 1, 0.0001 mg/ml); 10^5 PFU/ml in the series with HSV-1 McKrae Strain (Run 1, 0.001 mg/ml); 10^4 PFU/ml with HSV-1 McKrae Strain (Run 1, 0.01 mg/ml); 10^1 PFU/ml with HSV-1 McKrae Strain (Run 1, 0.1 mg/ml); 0 PFU/ml in the series on HSV-1 McKrae Strain (Run 1, 1 mg/ml); 0 PFU/ml in the series with HSV-1 McKrae Strain (Run 1, 5 mg/ml). In addition, the “virucidal efficacy (HSV-1 titer)” value in the series on HSV-1 McKrae Strain (Run 2, 0.001 mg/ml) is given as 10^4 PFU/ml; with HSV-1 McKrae Strain (Run 2, 0.01 mg/ml) it was 10^1 PFU/ml; in the series with HSV-1 McKrae Strain (Run 2, 0.1 mg/ml), 0 PFU/ml; in the series on HSV-1 McKrae Strain (Run 2, 1 mg/ml), 0 PFU/ml; with HSV-1 McKrae Strain (Run 2, 5 mg/ml), 0 PFU/ml. Further, in the series on HSV-1 McKrae Strain (Experiment 5 (Table 14), HSV-1), the “effective virucidal concentration IC50” value is recorded as 0.1-.1 mg/ml. In addition, the “effective virucidal concentration IC90” value with HSV-1 McKrae Strain (Experiment 5 (Table 14), HSV-1) lay within 100 to 1000 µg/mL. Further, the toxicity effects entry is reported as “-” in series [3] (24 h, 0.00 mg/ml (so in the source)); “-” in series [3] (24 h, 0.01 mg/ml); “-” in series [3] (24 h, 0.5 mg/ml); “-” in series [3] (48 h, 0.00 mg/ml (so in the source)); “-” in series [3] (48 h, 0.01 mg/ml); “-” in series [3] (48 h, 0.5 mg/ml). For the same compound, the toxicity effects result in series [3] (48 h, 5 mg/ml) is reported as “+”.
